Key:
VDR = biological target: T1, VDR (Homo sapiens, UniProt P11473); assay: VDR agonism by induction of CYP24 gene expression (RT/PCR); type: cell-based
T1 construct: endogenous in cells; host or cells: SCC25 human head and neck squamous carcinoma cells
T1 sequence (P11473 1-427): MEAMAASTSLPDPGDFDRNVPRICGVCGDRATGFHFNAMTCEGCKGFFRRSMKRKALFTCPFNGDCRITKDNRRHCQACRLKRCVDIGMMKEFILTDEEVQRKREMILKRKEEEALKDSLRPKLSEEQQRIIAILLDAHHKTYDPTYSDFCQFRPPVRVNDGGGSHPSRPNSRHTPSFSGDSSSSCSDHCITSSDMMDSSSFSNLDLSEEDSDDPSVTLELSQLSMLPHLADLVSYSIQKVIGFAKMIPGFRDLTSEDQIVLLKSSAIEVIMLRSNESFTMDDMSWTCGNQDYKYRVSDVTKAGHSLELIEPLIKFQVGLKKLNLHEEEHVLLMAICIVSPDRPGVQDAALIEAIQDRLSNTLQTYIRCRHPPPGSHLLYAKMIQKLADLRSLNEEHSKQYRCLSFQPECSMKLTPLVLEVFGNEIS
Experimental: Cell culture. Human head and neck squamous carcinoma cell lines SCC4 and SCC45 and mouse HNSCC line AT84 were purchased from American Type Culture Collection (Manassas, VA) and cultured under recommended conditions. Cells were split at 60-70% confluence, as follows: cells were washed with filtered PBS, split with a 5-10 min incubation with 1 ml Trypsin-EDTA (Invitrogen, Carlsbad, CA) in PBS, collected with medium. Following centrifugation, the supernatant was removed. Cell pellets were resuspended with DMEM-F12, and distributed on fresh media-containing dishes. For treatments, AT84 cells were split and 24h later medium was changed to DMEM + 10% charcoal-stripped FBS.
RNA isolation and RT/PCR analysis. […]. Proc. Nat. Acad. Sci. U.S.A. 105, 8250-55. and Lamblin, M.et al Bioorganic & Medicinal Chemistry (2010) 18:4119-4137. After treatment, cells were washed with PBS, homogenized with 1ml TRIzol Reagent (Invitrogen, Carlsbad, CA), kept at room temperature for 2-5 min, collected and kept at -80 °C for at least 1h. After, thawing 0.2 ml chloroform was added. After vigorous mixing and storing for 10min, mixtures were centrifuged (10,000rpm, 15 min, 4 °C) and the upper transparent layer was transferred to a new tube. 0.5 ml isopropanol was added and the new solution was mixed. After centrifuging at 4 °C, the supernatant was discarded and 1ml of 75% ethanol was added. After centrifuging and discarding the supernatant, the pellet was air-dried for 5-10 min, and then dissolved in ddH2O. RNA concentrations were measured using a spectrophotometer, and 1-3µg of RNA were loaded for reverse transcriptase reactions (total volume: 20 µl). 80µl of ddH2O was added to the RT-product, and 1.5µl of that was used as template for the PCR reaction. Reverse transcriptase (Super Script II) was purchased from Invitrogen (Carlsbad, CA). DNA polymerase and dNTP's were ordered from Fermentas (Glen Burnie, MD).
Test compounds (10 µM) were first screened for VDR agonism by analysis of induction of CYP24 gene expression in 1,25D-sensitive human SCC25 cells. […]. Consistent with binding to the VDR, induction of CYP24 by compound JF-B01, compound JF-B53 or compound 16 (JF-B54) was blocked (Fig. 1c). […]

RPMI-8226 = assay: NCI 60 cell panel
NCI-H460 = assay: NCI 60 cell panel
KM12 = assay: NCI 60 cell panel
SF-539 = assay: NCI 60 cell panel
SNB-75 = assay: NCI 60 cell panel
LOX IMVI = assay: NCI 60 cell panel
M14 = assay: NCI 60 cell panel
OVCAR-8 = assay: NCI 60 cell panel
NCI/ADR-RES = assay: NCI 60 cell panel
A498 = assay: NCI 60 cell panel
MCF7 = assay: NCI 60 cell panel

CCC(CC)(c1ccc(OCC(=O)NO)c(C)c1)c1ccc(OCC(O)C(C)(C)C)c(C)c1 (racemic) [JF-B01, N-Hydroxy-2-(4-(3-(4-(2-hydroxy-3,3-dimethylbutoxy)-3-methylphenyl)pentan-3-yl)-2-methylphenoxy)acetamide]
induction of CYP24 by the compound was blocked (VDR; Fig. 1c, blocking agent not given): blocked | VDR agonist potency compared with that of LG190178 (VDR; SCC25 cells, Fig. 1b): equal to or greater | VDR agonist potency, fold lower than that of 1,25D (VDR; SCC25 cells, Fig. 1b): approximately 10 fold | VDR agonist activity and potency, induction of CYP24 gene expression (VDR; SCC25 cells, Fig. 1b, 1d): efficacious agonist | VDR agonism by induction of CYP24 gene expression (VDR; screen at 10 µM, SCC25 cells, Fig. 1a): agonist activity | GI50 (RPMI-8226; Homo sapiens, RPMI-8226): 1.12 µM | CC50 (RPMI-8226; Homo sapiens, RPMI-8226, read-out: LC50): 82.5 µM | TGI (RPMI-8226; Leukemia, RPMI-8226): 8.68E-6 | GI50 (NCI-H460; Homo sapiens, NCI-H460): 1.6 µM | CC50 (NCI-H460; Homo sapiens, NCI-H460, read-out: LC50): 9.51 µM | TGI (NCI-H460; Non-Small Cell Lung Cancer, NCI-H460): 3.90E-6 | TGI (KM12; Colon Cancer, KM12): 8.17E-6 | GI50 (KM12; Homo sapiens, KM12): 2.15 µM | CC50 (KM12; Homo sapiens, KM12, read-out: LC50): 28.8 µM | TGI (SF-539; CNS Cancer, SF-539): 2.74E-5 | GI50 (SF-539; Homo sapiens, SF-539): 13.7 µM | CC50 (SF-539; Homo sapiens, SF-539, read-out: LC50): 54.9 µM | TGI (SNB-75; CNS Cancer, SNB-75): 1.90E-5 | GI50 (SNB-75; Homo sapiens, SNB-75): 0.0482 µM | CC50 (SNB-75; Homo sapiens, SNB-75, read-out: LC50): 62 µM | GI50 (LOX IMVI; Homo sapiens): 0.183 µM | CC50 (LOX IMVI; Homo sapiens, read-out: LC50): 0.602 µM | TGI (LOX IMVI; Melanoma): 3.32E-7 | GI50 (M14; Homo sapiens, M14): 2.3 µM | CC50 (M14; Homo sapiens, M14, read-out: LC50): 16.5 µM | TGI (M14; Melanoma, M14): 5.33E-6 | GI50 (OVCAR-8; Homo sapiens, OVCAR-8): 6.27 µM | CC50 (OVCAR-8; Homo sapiens, OVCAR-8, read-out: LC50): 51.1 µM | TGI (OVCAR-8; Ovarian Cancer, OVCAR-8): 2.03E-5 | GI50 (NCI/ADR-RES; Homo sapiens): 4.39 µM | CC50 (NCI/ADR-RES; Homo sapiens, read-out: LC50): 41.9 µM | TGI (NCI/ADR-RES; Ovarian Cancer): 1.67E-5 | GI50 (A498; Homo sapiens, A498): 4.56 µM | CC50 (A498; Homo sapiens, A498, read-out: LC50): 45.6 µM | TGI (A498; Renal Cancer, A498): 2.08E-5 | TGI (MCF7; Breast Cancer, MCF7): 2.70E-6 | GI50 (MCF7; Homo sapiens, MCF7): 0.333 µM | CC50 (MCF7; Homo sapiens, MCF7, read-out: LC50): 12.8 µM
